{"source": "patent US20230242669A1", "about": "“ANTIBODY THAT BINDS ERBB-2 AND ERBB-3” (Merus N.V., priority 2014, published 2023)", "key": {"N87 cells": {"system": "N87 cells", "test": "HRG driven N87 proliferation assay", "format": "cell-based, human", "protocol": "Upregulation of NRG1-β1 is a key resistance mechanism against HER2 targeted therapies (Wilson, 2012). […] N87 cells were cultured in RPMI 1640 supplemented with 10% heat inactivated FBS. For the proliferation assay subconfluent cell cultures of N87 cells were washed with PBS trypsinized and trypsin was inactivated by adding culture medium. Cells were washed twice in large volumes of assay medium (RPMI 1640 medium containing 0.05% BSA and 10 µg/ml Holo Transferrin). Antibodies were diluted in a semi-log titration that varied from 1-0.0001 µg/ml. Cells were added at a density of 10000 cells/well in the presence of 100 ng/ml final concentration of HRG. The cells were cultivated for 3 days at 37° C., 5% CO2, in 95% relative humidity. ALAMAR BLUE™ (INVITROGEN®) was added according to the manufacturer’s instructions and incubated for 6 hours at 37° C., 5% CO2, in 95% relative humidity in the dark. Fluorescence was measured at 550 nm excitation with 590 nm emission wavelength.\nUpregulation of NRG 1-β1 is a key resistance mechanism against HER2 targeted therapies (Wilson, 2012). […] To this aim N87 cells were cultured in RPMI 1640 supplemented with 10% heat inactivated FBS. […] Fluorescence was measured at 550 nm excitation with 590 nm emission wavelength."}, "[1]": {"system": "SK-BR-3 and MCF-7 target cells", "test": "ADCC 51Cr release assay", "format": "cell-based, human", "settings": "whole blood or PBMC effector cells", "protocol": "ADCC activity is an important anti-tumour mechanism of action for therapeutic antibodies in cancer. […] Trastuzumab and a negative control antibody were included as control antibodies in the experiment. Whole blood and PBMC fractions were obtained from healthy donors. Each antibody was tested against the HER2 high (SK-BR-3) and HER2 low (MCF-7) expressing target cells. Target cells were loaded with ^51Cr (Amersham) and opsonized with the indicated concentrations of antibody. Whole-blood or PBMC fraction were used as effector cells in a 200 µL reaction in RPMI 1640 + 10% heat inactivated FCS. Cells were incubated together for 4 h, and lysis was estimated by measuring radioactivity in the supernatant using a Y^- scintillator. Percentage of specific lysis was calculated as follows: (experimental cpm – basal cpm) / (maximal cpm – basal cpm) × 100, with maximal lysis determined in the presence of 5% Triton X-100 and basal lysis in the absence of antibody and effectors.\nADCC activity can be enhanced by different techniques, one of them being the removal of fucose. […] Both antibodies were applied in a serial dilution and a negative control antibody and trastuzumab were included in the assay."}, "[2]": {"system": "human stem cell derived cardiomyocytes", "test": "Cardiomyocyte viability under doxorubicin stress", "format": "cell-based", "settings": "3 µM doxorubicin, 10 ng/ml HRG; monospecific antibodies 68 nM", "experimental": "Human stem cell derived cardiomyocytes (Pluriomics BV) were seeded at a concentration of 20.000 well in white flat-bottom assay plates (corning 655098). On day 5 of culture the medium was replaced for glucose and galactose free culture medium supplemented with 10 ng/ml HRG. On day 7 test antibodies were added in combination with doxorubicin (3 µM). Cell viability was assayed on day 9 using the Promega Cell titer Glo assay."}, "[3]": {"system": "HRG mediated phosphorylation in N87 and SKBR-3 cells", "test": "Western blot of HRG stimulated cells", "format": "cell-based, human", "settings": "5 nM antibody, 100 ng/ml HRG, 1-24 hours", "protocol": "Cells of an exponentially grown culture were harvested and seeded in 10 cm dishes (20×10^6 cells for N87 and 7×10^6 cells for SKBR-3) in starvation medium (N87 cells: RPMI-1640, 0.05% BSA, 10 µg/ml Holo-transferrin; SKBR-3 cells: DMEM/F-12, 2 mM L-glutamine, 0.05% BSA, 10 µg/ml Holo-transferrin). The next day, antibodies were added to a final concentration of 5 nM and cells were incubated for one hour. HRG was then added to a final concentration of 100 ng/ml. After 1, 3, 6 or 24 hours, dishes were placed on ice, cells were washed twice with cold PBS, transferred to Eppendorf tubes and lysed with 250 µl of RIPA lysis buffer (20 mM Tris-HCl pH 7.5, 150 mM NaCl, 1 mM Na2EDTA, 1 mM EGTA, 1% NP-40, 1% sodium deoxycholate, 0.1% SDS, 2.5 mM sodium pyrophosphate, 1 mM beta-glycerophosphate, 1 mM Na3VO4, 1 µg/ml leupeptin). Lysis was allowed to proceed for 30 minutes on ice. Cell lysates were centrifuged and supernatants were collected in new Eppendorf tubes. Protein concentration was determined using the BCA method (Pierce). […] Membranes were blocked for one hour with TBS-T containing 5 % BSA and stained with the indicated antibodies according to the manufacturer’s instructions (Cell Signaling Technology). Membranes were then incubated with a HRP-conjugated secondary antibody, incubated with ECL substrate and subjected to autoradiography using X-ray films (Amersham). […]"}, "SKBR-3 and N87 cells": {"system": "SKBR-3 and N87 cells", "test": "Internalization of pH-sensitive dye labelled antibodies", "format": "cell-based, human", "settings": "100 nM labelled antibody, 1 ng/ml HRG"}}}
{"substance": "PB4188: bispecific HER2xHER3 IgG: HER2 arm MF3958, HER3 arm MF3178", "values": [{"measurement": "Anti-proliferative activity on N87", "setting": "N87 cells; 100 ng/ml HRG", "value": "superior activity over anti-HER2 or anti-HER3 monoclonal antibodies"}, {"measurement": "Anti-proliferative activity on N87 versus PG3178", "setting": "N87 cells; increasing HRG 0.04-39.5 nM", "value": "superior activity compared to the parental anti-HER3 monoclonal antibody"}, {"measurement": "ADCC activity", "setting": "[1]", "value": "effective at high antibody concentrations"}, {"measurement": "Cardiomyocyte viability (ATP)", "setting": "[2]", "value": "unaffected"}, {"measurement": "HER3 phosphorylation", "setting": "[3]", "value": "prolonged inhibition of HER3 phosphorylation"}, {"measurement": "Internalization", "setting": "SKBR-3 and N87 cells", "value": "internalizes to the same extend as trastuzumab"}]}
